Laboratory results reported in patent US20160122320A1, “USEFUL COMBINATIONS OF MONOBACTAM ANTIBIOTICS WITH BETA-LACTAMASE INHIBITORS” (Basilea Pharmaceutica AG, priority 2005, published 2016).

How the values were obtained:
Assay in all cases: MIC, NCCLS broth microdilution
Type in all cases: cell-based
[1] = tested on: Klebsiella pneumoniae CF104
[2] = tested on: Pseudomonas aeruginosa MK1184
Enterobacter cloacae MRW = tested on: Enterobacter cloacae MRW
Description: (§1) In all cases the final concentration of DMSO incubated with the bacteria is less than or equal to 1%. […] Plates were incubated overnight at an appropriate temperature (30° C. or 37° C.) and optical densities assessed by eye. The MIC value is defined as the lowest compound concentration completely inhibiting visible growth of the test organism. When combinations between compounds of formula I with compounds of formula II and are evaluated the compounds of formula I are tested in dilution series as described above while the compounds of formula II and III-XIII were present in all wells at a constant concentration of 4 μg/mL each.

[3] = tested on: Enterobacter cloacae M4018
Description: as §1

[4] = tested on: Pseudomonas aeruginosa 1973E
Procedure, shortened: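 MIC read by eye as the lowest concentration giving no visible growth after overnight incubation (30° C. or 37° C.), following NCCLS M7-A5 microdilution with ≤1% final DMSO. For combinations, partner compounds (formula II, III-XIII) were fixed at 4 μg/mL each while formula I compounds were titrated.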

Acinetobacter sp. J2 = details: for MIC of antibiotic: antibiotic alone, no inhibitor
Serratia marcescens S6 = tested on: Serratia marcescens S6
[5] = tested on: Stenotrophomonas malthophilia 1AC736; details: for MIC of antibiotic: antibiotic alone, no inhibitor
[6] = tested on: Enterobacter cloacae ATCC13047/CRO-R
Description: (§2) Antimicrobial activity of the compounds and of their combinations was determined against a selection of organisms according to the standard procedures described by the National Committee for Clinical Laboratory Standards (National Committee for Clinical Laboratory. Standards (2000). Methods for Dilution Antimicrobial Susceptibility Tests for Bacteria That Grow Aerobically-Fifth Edition: Approved Standard M7-A5. NCCLS, Wayne, Pa., USA).
as §1

[7] = tested on: Enterobacter cloacae B1102
Description: as §2, §1

[8] = tested on: Enterobacter aerogenes Zayakosky; details: Enterobacter aerogenes Zayakosky
Description: as §2, §1

Enterobacter cloacae P99 = tested on: Enterobacter cloacae P99
[9] = tested on: Enterobacter aerogenes B1
Description: as §2, §1

[10] = with clavulanate (clavulanic acid)
[11] = + compound 323 and clavulanate, 4 mg/L each

With CC1C(NC(=O)C(=NOCc2cc(=O)c(O)cn2O)c2csc(N)n2)C(=O)N1S(=O)(=O)O (stereo not drawn) [Compound 1] the MIC of antibiotic ([1]; antibiotic alone, no inhibitor) was >32 mg/L, the “MIC of antibiotic at fixed inhibitor concentration of 4 mg/L” value ([1]; with 102 and clavulanate) was 1 mg/L and the “MIC of antibiotic at fixed inhibitor concentration of 4 mg/L” value ([1]; with 111 and clavulanate) was <0.06 mg/L. For the same molecule, the “MIC of antibiotic at fixed inhibitor concentration of 4 mg/L” value ([1]; with 202 and clavulanate) was 2 mg/L, the “MIC of antibiotic at fixed inhibitor concentration of 4 mg/L” value ([1]; with 206 and clavulanate) was 0.25 mg/L and the “MIC of antibiotic at fixed inhibitor concentration of 4 mg/L” value ([1]; with 323 and clavulanate) was 2 mg/L. For the same molecule, the “MIC of antibiotic at fixed inhibitor concentration of 4 mg/L” value ([1]; with 323 and sulbactam) was 1 mg/L, the “MIC of antibiotic at fixed inhibitor concentration of 4 mg/L” value ([1]; with 324 and clavulanate) was 1 mg/L and the “MIC of antibiotic at fixed inhibitor concentration of 4 mg/L” value ([1]; with 501) was 0.5 mg/L. The “MIC of antibiotic at fixed inhibitor concentration of 4 mg/L” value [1, 10] was 0.5 mg/L, the MIC of antibiotic ([2]; antibiotic alone, no inhibitor) was >32 mg/L and the “MIC of antibiotic at fixed inhibitor concentration of 4 mg/L” value ([2]; with 102 and clavulanate) was 4 mg/L. For the same molecule, the “MIC of antibiotic at fixed inhibitor concentration of 4 mg/L” value ([2]; with 103 and clavulanate) was 8 mg/L, the “MIC of antibiotic at fixed inhibitor concentration of 4 mg/L” value ([2]; with 111 and clavulanate) was 8 mg/L and the “MIC of antibiotic at fixed inhibitor concentration of 4 mg/L” value ([2]; with 202 and clavulanate) was 8 mg/L. The “MIC of antibiotic at fixed inhibitor concentration of 4 mg/L” value ([2]; with 206 and clavulanate) was >32 mg/L, the “MIC of antibiotic at fixed inhibitor concentration of 4 mg/L” value ([2]; with 323 and clavulanate) was 16 mg/L and the “MIC of antibiotic at fixed inhibitor concentration of 4 mg/L” value ([2]; with 323 and sulbactam) was 4 mg/L. The “MIC of antibiotic at fixed inhibitor concentration of 4 mg/L” value ([2]; with 501) was >32 mg/L, the “MIC of antibiotic at fixed inhibitor concentration of 4 mg/L” value [2, 10] was >32 mg/L and the “Minimal Inhibitory Concentration of antibiotic at fixed inhibitor concentration of 4 mg/L” value (“Minimal Inhibitory Concentration … of 4 mg/L” below) (Enterobacter cloacae MRW; + clavulanate 4 mg/L) was 32 mg/L. The “Minimal Inhibitory Concentration … of 4 mg/L” value (Enterobacter cloacae MRW; + compound 206 4 mg/L) was 16 mg/L, the “Minimal Inhibitory Concentration … of 4 mg/L” value (Enterobacter cloacae MRW; [11]) was 4 mg/L and the “Minimal Inhibitory Concentration … of 4 mg/L” value (Enterobacter cloacae MRW; + compound 501 4 mg/L) was 32 mg/L. The “Minimal Inhibitory Concentration of antibiotic” value (Enterobacter cloacae MRW; antibiotic alone) was >32 mg/L, the “Minimal Inhibitory Concentration … of 4 mg/L” value ([3]; + clavulanate 4 mg/L) was >32 mg/L and the “Minimal Inhibitory Concentration … of 4 mg/L” value ([3]; + compound 206 4 mg/L) was 8 mg/L. The “Minimal Inhibitory Concentration … of 4 mg/L” value [3, 11] was 2 mg/L, the “Minimal Inhibitory Concentration … of 4 mg/L” value ([3]; + compound 501 4 mg/L) was 16 mg/L and the “Minimal Inhibitory Concentration of antibiotic” value ([3]; antibiotic alone) was 32 mg/L. For the same molecule, the MIC of antibiotic ([4]; antibiotic alone, no inhibitor) was 16 mg/L, the “MIC of antibiotic at fixed inhibitor concentration of 4 mg/L” value ([4]; with 102 and clavulanate) was 2 mg/L and the “MIC of antibiotic at fixed inhibitor concentration of 4 mg/L” value ([4]; with 111 and clavulanate) was 4 mg/L. For the same molecule, the “MIC of antibiotic at fixed inhibitor concentration of 4 mg/L” value ([4]; with 202 and clavulanate) was 4 mg/L, the “MIC of antibiotic at fixed inhibitor concentration of 4 mg/L” value ([4]; with 206 and clavulanate) was 4 mg/L and the “MIC of antibiotic at fixed inhibitor concentration of 4 mg/L” value ([4]; with 323 and clavulanate) was 8 mg/L. For the same molecule, the “MIC of antibiotic at fixed inhibitor concentration of 4 mg/L” value ([4]; with 323 and sulbactam) was 4 mg/L, the “MIC of antibiotic at fixed inhibitor concentration of 4 mg/L” value ([4]; with 324 and clavulanate) was 8 mg/L and the “MIC of antibiotic at fixed inhibitor concentration of 4 mg/L” value ([4]; with 501) was 8 mg/L. For the same molecule, the “MIC of antibiotic at fixed inhibitor concentration of 4 mg/L” value [4, 10] was 8 mg/L, the MIC of antibiotic (Acinetobacter sp. J2; Acinetobacter baumannii J2) was >32 mg/L and the “MIC of antibiotic at fixed inhibitor concentration of 4 mg/L” value (Acinetobacter sp. J2; Acinetobacter baumannii J2, with 111 and clavulanate) was 4 mg/L. For the same molecule, the “MIC of antibiotic at fixed inhibitor concentration of 4 mg/L” value (Acinetobacter sp. J2; Acinetobacter baumannii J2, with 202 and clavulanate) was 4 mg/L, the “MIC of antibiotic at fixed inhibitor concentration of 4 mg/L” value (Acinetobacter sp. J2; Acinetobacter baumannii J2, with 206 and clavulanate) was 4 mg/L and the “MIC of antibiotic at fixed inhibitor concentration of 4 mg/L” value (Acinetobacter sp. J2; Acinetobacter baumannii J2, with 323 and clavulanate) was 16 mg/L. The “MIC of antibiotic at fixed inhibitor concentration of 4 mg/L” value (Acinetobacter sp. J2; Acinetobacter baumannii J2, with 323 and sulbactam) was 1 mg/L, the “MIC of antibiotic at fixed inhibitor concentration of 4 mg/L” value (Acinetobacter sp. J2; Acinetobacter baumannii J2, with 324 and clavulanate) was 32 mg/L and the “MIC of antibiotic at fixed inhibitor concentration of 4 mg/L” value (Acinetobacter sp. J2; Acinetobacter baumannii J2, with 501) was <0.06 mg/L. For the same molecule, the “MIC of antibiotic at fixed inhibitor concentration of 4 mg/L” value (Acinetobacter sp. J2; Acinetobacter baumannii J2, with clavulanate (clavulanic acid)) was >32 mg/L, the MIC of antibiotic (Acinetobacter sp. J2; Acinetobacter sp. J2) was >32 mg/L and the “MIC of antibiotic at fixed inhibitor concentration of 4 mg/L” value (Serratia marcescens S6; with 111 and clavulanate) was 0.25 mg/L. The “MIC of antibiotic at fixed inhibitor concentration of 4 mg/L” value (Serratia marcescens S6; with 202 and clavulanate) was 0.5 mg/L, the “MIC of antibiotic at fixed inhibitor concentration of 4 mg/L” value (Serratia marcescens S6; with 206 and clavulanate) was 4 mg/L and the “MIC of antibiotic at fixed inhibitor concentration of 4 mg/L” value (Serratia marcescens S6; with 323 and clavulanate) was 0.25 mg/L. For the same molecule, the “MIC of antibiotic at fixed inhibitor concentration of 4 mg/L” value (Serratia marcescens S6; with 323 and sulbactam) was 0.5 mg/L, the “MIC of antibiotic at fixed inhibitor concentration of 4 mg/L” value (Serratia marcescens S6; with 324 and clavulanate) was 1 mg/L and the “MIC of antibiotic at fixed inhibitor concentration of 4 mg/L” value (Serratia marcescens S6; with 501) was 4 mg/L. For the same molecule, the “MIC of antibiotic at fixed inhibitor concentration of 4 mg/L” value (Serratia marcescens S6; [10]) was 4 mg/L, the MIC of antibiotic ([5]; Stenotrophomonas malthophilia 1AC736) was 0.5 mg/L and the MIC of antibiotic ([5]; Stenotrophomonas maltophilia 1AC736) was 1 mg/L. The “MIC of antibiotic at fixed inhibitor concentration of 4 mg/L” value ([5]; Stenotrophomonas maltophilia 1AC736, with 102 and sulbactam) was 2 mg/L, the “MIC of antibiotic at fixed inhibitor concentration of 4 mg/L” value ([5]; Stenotrophomonas maltophilia 1AC736, with 111 and clavulanate) was 0.125 mg/L and the “MIC of antibiotic at fixed inhibitor concentration of 4 mg/L” value ([5]; Stenotrophomonas maltophilia 1AC736, with 202 and clavulanate) was 0.125 mg/L. For the same molecule, the “MIC of antibiotic at fixed inhibitor concentration of 4 mg/L” value ([5]; Stenotrophomonas maltophilia 1AC736, with 206 and clavulanate) was 0.125 mg/L, the “MIC of antibiotic at fixed inhibitor concentration of 4 mg/L” value ([5]; Stenotrophomonas maltophilia 1AC736, with 323 and clavulanate) was 0.125 mg/L and the “MIC of antibiotic at fixed inhibitor concentration of 4 mg/L” value ([5]; Stenotrophomonas maltophilia 1AC736, with 323 and sulbactam) was 0.125 mg/L. The “MIC of antibiotic at fixed inhibitor concentration of 4 mg/L” value ([5]; Stenotrophomonas maltophilia 1AC736, with 324 and clavulanate) was 0.125 mg/L, the “MIC of antibiotic at fixed inhibitor concentration of 4 mg/L” value ([5]; Stenotrophomonas maltophilia 1AC736, with 501) was 0.25 mg/L and the “MIC of antibiotic at fixed inhibitor concentration of 4 mg/L” value ([5]; Stenotrophomonas maltophilia 1AC736, with clavulanate (clavulanic acid)) was 0.5 mg/L. For the same molecule, the “Minimal Inhibitory Concentration … of 4 mg/L” value ([6]; + clavulanate 4 mg/L) was >32 mg/L, the “Minimal Inhibitory Concentration … of 4 mg/L” value ([6]; + compound 206 4 mg/L) was >32 mg/L and the “Minimal Inhibitory Concentration … of 4 mg/L” value [6, 11] was 8 mg/L. The “Minimal Inhibitory Concentration … of 4 mg/L” value ([6]; + compound 501 4 mg/L) was >32 mg/L, the “Minimal Inhibitory Concentration of antibiotic” value ([6]; antibiotic alone) was >32 mg/L and the “Minimal Inhibitory Concentration … of 4 mg/L” value ([7]; + clavulanate 4 mg/L) was 32 mg/L. The “Minimal Inhibitory Concentration … of 4 mg/L” value ([7]; + compound 206 4 mg/L) was 16 mg/L, the “Minimal Inhibitory Concentration … of 4 mg/L” value [7, 11] was 8 mg/L and the “Minimal Inhibitory Concentration … of 4 mg/L” value ([7]; + compound 501 4 mg/L) was 16 mg/L. The “Minimal Inhibitory Concentration of antibiotic” value ([7]; antibiotic alone) was >32 mg/L, the “Minimal Inhibitory Concentration … of 4 mg/L” value ([8]; + clavulanate 4 mg/L) was >32 mg/L and the “Minimal Inhibitory Concentration … of 4 mg/L” value ([8]; + compound 206 4 mg/L) was >32 mg/L. The “Minimal Inhibitory Concentration … of 4 mg/L” value [8, 11] was 16 mg/L, the “Minimal Inhibitory Concentration … of 4 mg/L” value ([8]; + compound 501 4 mg/L) was >32 mg/L and the “Minimal Inhibitory Concentration of antibiotic” value ([8]; antibiotic alone) was >32 mg/L. The MIC of antibiotic (Enterobacter cloacae P99; antibiotic alone, no inhibitor) was >32 mg/L, the “MIC of antibiotic at fixed inhibitor concentration of 4 mg/L” value (Enterobacter cloacae P99; with 102 and clavulanate) was 4 mg/L and the “MIC of antibiotic at fixed inhibitor concentration of 4 mg/L” value (Enterobacter cloacae P99; with 111 and clavulanate) was 4 mg/L. The “MIC of antibiotic at fixed inhibitor concentration of 4 mg/L” value (Enterobacter cloacae P99; with 202 and clavulanate) was 16 mg/L, the “MIC of antibiotic at fixed inhibitor concentration of 4 mg/L” value (Enterobacter cloacae P99; with 206 and clavulanate) was 8 mg/L and the “MIC of antibiotic at fixed inhibitor concentration of 4 mg/L” value (Enterobacter cloacae P99; with 323 and clavulanate) was 4 mg/L. The “MIC of antibiotic at fixed inhibitor concentration of 4 mg/L” value (Enterobacter cloacae P99; with 323 and sulbactam) was 4 mg/L, the “MIC of antibiotic at fixed inhibitor concentration of 4 mg/L” value (Enterobacter cloacae P99; with 324 and clavulanate) was 4 mg/L and the “MIC of antibiotic at fixed inhibitor concentration of 4 mg/L” value (Enterobacter cloacae P99; with 501) was 16 mg/L. For the same molecule, the “MIC of antibiotic at fixed inhibitor concentration of 4 mg/L” value (Enterobacter cloacae P99; [10]) was 32 mg/L, the “Minimal Inhibitory Concentration … of 4 mg/L” value ([9]; + clavulanate 4 mg/L) was >32 mg/L and the “Minimal Inhibitory Concentration … of 4 mg/L” value ([9]; + compound 206 4 mg/L) was 16 mg/L. The “Minimal Inhibitory Concentration … of 4 mg/L” value [9, 11] was 4 mg/L, the “Minimal Inhibitory Concentration … of 4 mg/L” value ([9]; + compound 501 4 mg/L) was >32 mg/L and the “Minimal Inhibitory Concentration of antibiotic” value ([9]; antibiotic alone) was 32 mg/L.
